{"source": "patent US4980377A", "about": "“1-(aminophenyl)-2-aminopropanone derivatives” (Laboratoire L. Lafon, priority 1984, dated 1990)", "key": {"[1]": {"test": "Acute toxicity by intraperitoneal administration", "assay_type": "in vivo, mouse", "conditions": "mouse, in vivo, ip; male mice", "method": "(§1) In the neuropsychopharmacological study which follows, a solution of CRL 41 153 in distilled water (pH 1.5) was administered intraperitoneally in a volume of 20 ml/kg to male mice and 5 ml/kg to male rats."}, "male mice": {"test_system": "male mice", "test": "Acute toxicity by intraperitoneal administration", "assay_type": "in vivo, mouse", "conditions": "i.p.", "method": "as §1"}, "mice [2]": {"test_system": "mice", "test": "Overall behavior and reactivities in mice", "assay_type": "in vivo, mouse", "conditions": "i.p.", "method": "as §1\n(§2) Groups of three animals are observed before and then 0.25 hour, 0.50 hour, 1 hour, 2 hours, 3 hours and 24 hours after the administration of CRL 41 153."}, "rats [3]": {"test_system": "rats", "test": "Overall behavior and reactivities in rats", "assay_type": "in vivo, rat", "conditions": "for Observed symptoms: i.p.", "method": "as §1, §2"}, "mice [4]": {"test_system": "mice", "test": "Interaction with apomorphine in mice", "assay_type": "in vivo, mouse", "conditions": "gastric, apomorphine 16 mg/kg s.c.", "method": "Groups of 6 mice receive CRL 41 153 0.5 hour before the subcutaneous injection of 1 or 16 mg/kg of apomorphine."}, "mice [5]": {"test_system": "mice", "test": "Spontaneous motility", "assay_type": "in vivo, mouse", "conditions": "gastric", "method": "0.5 hour after they have received CRL 41 153, the mice (6 per dose, 12 control animals) are placed in an actimeter, where their motility is recorded for 30 minutes."}, "mice [6]": {"test_system": "mice", "test": "Interaction with barbital", "assay_type": "in vivo, mouse", "conditions": "gastric", "method": "Half an hour after the administration of CRL 41 153, groups of 10 mice receive an intraperitoneal injection of barbital (220 mg/kg)."}, "rats [7]": {"test_system": "rats", "test": "Investigation of stereotype movements", "assay_type": "in vivo, rat", "conditions": "i.p., compared with amphetamine 2 mg/kg, hydrochloride", "method": "Immediately after the intraperitoneal administration of CRL 41 194 or amphetamine, groups of 6 rats are placed in Plexiglass boxes (20×10×10 cm). The stereotype movements are graded from 0 to 3 every 10 minutes until they wear off.\nGroups of 6 rats receive an intraperitoneal injection of CRL 41 213, distilled water or amphetamine immediately before being placed in small cages, where their stereotype behavior is graded every 10 minutes until the effect wears off."}, "[8]": {"test": "Particular toxicity in grouped mice", "conditions": "mouse, ip", "method": "(§3) The number of dead animals is noted after 1 hour, 2 hours, 3 hours, 4 hours and 24 hours."}, "mice [9]": {"test_system": "mice", "test": "Particular toxicity in grouped mice", "conditions": "mice", "method": "as §3"}, "dogs": {"test_system": "dogs", "test": "Cardiovascular study in anesthetized dogs", "assay_type": "in vivo, dog", "outline": "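Measurements: blood pressure, heart rate, femoral and vertebral arterial flow, rectal temperature, skin colour, and for CRL 41 194 bile colour via bile-duct catheter. Doses rose stepwise 0.1–10 mg/kg intraduodenally in solution under nembutal anaesthesia; two dogs got CRL 41 194, four CRL 41 221.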"}, "[10]": {"test_system": "cellular and humoral immunity", "test": "Test for cells forming lysis areas", "conditions": "in vivo"}, "[11]": {"test_system": "cellular and humoral immunity", "test": "Delayed hypersensitivity to the red blood corpuscles of sheep", "assay_type": "in vivo"}, "man": {"test_system": "man", "test": "Clinical study: treatment of depressions", "assay_type": "in vivo, human"}, "humans": {"test_system": "humans", "test": "Clinical study: vasodilator", "assay_type": "in vivo, human", "description": "In the treatment of diseases associated with the blood circulation through the vessels."}, "[12]": {"test_system": "gravid White New Zealand female rabbits", "test": "Teratogenicity in gravid White New Zealand rabbits", "assay_type": "in vivo, rabbit", "conditions": "day 5 to day 18 of gestation; for Affected foetuses, %: normal limit 1.5%", "outline": "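Fetuses harvested by cesarean on gestation day 29 were scored for number and for any malformation (limb blockade, anury, tail or skull defects, exencephaly).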"}, "[13]": {"test": "pH of solutions in distilled water", "assay_type": "physicochemical", "conditions": "administered solution in distilled water, concentration not given", "method": "The neuropsychopharmacological study was undertaken according to the procedures described above for CRL 41 153, CRL 41 213 being adminstered intraperitoneally, in solution in distilled water, in a volume of 20 ml/kg to male mice and a volume of 5 ml/kg to male rats, and the pH of the injected solution varying with the concentration of CRL 41 213 according to the data given in Table II below."}, "CNS": {"test_system": "CNS", "test": "Neuropsychopharmacological profile as a whole", "assay_type": "in vivo, mice and rats", "conditions": "conclusion of the tests", "method": "as §1"}, "immunity": {"test_system": "immunity", "test": "Immunological study (overall)", "conditions": "in vivo; hydrochloride"}, "[14]": {"conditions": "anesthetized dogs, intraduodenal"}, "[15]": {"conditions": "dogs, after product, isoprenaline 10 μg/kg"}, "[16]": {"conditions": "dogs, after product, norepinephrine 2 μg/kg"}}, "note": "“Also recorded” adds a separate entry of the source. Counter-ions that a name gives are not always drawn.", "data": [{"compound": "CC(C)NC(C)C(=O)c1cc(Cl)c(N)c(Cl)c1", "note": "(centres unmarked) [CRL 41 194, 1-(4-amino-3,5-dichlorophenyl)-2-isopropylaminopropanone hydrochloride]", "values": [{"measurement": "LD50", "setting": "[1]", "result": 86, "unit": "mg/kg"}, {"measurement": "LD0 (maximum non-lethal dose)", "setting": "male mice", "result": "greater than 32 mg/kg"}, {"measurement": "Observed symptoms", "setting": "mice [2]; 0.25 mg/kg", "result": "weak excitation 24 hours after administration"}, {"measurement": "Observed symptoms", "setting": "mice [2]; 1 mg/kg", "result": "weak excitation 24 hours after administration"}, {"measurement": "Observed symptoms", "setting": "mice [2]; 4 mg/kg", "result": "weak excitation and an increase in the reactivity to touch about 24 hours after administration"}, {"measurement": "Observed symptoms", "setting": "mice [2]; 16 mg/kg, hydrochloride", "result": "weak excitation 24 hours after administration; also recorded: an increase in the reactivity to touch for 24 hours; also recorded: dyspnea for 3 hours; also recorded: mydriasis for 2 hours (at a maximum 1 hour after administration); also recorded: dilation of the caudal veins for 2 hours"}, {"measurement": "Stereotype movements (summary)", "setting": "rats [3]; dose not stated", "result": "stereotype movements (of moderate intensity)"}, {"measurement": "Observed symptoms", "setting": "rats [3]; 0.125 mg/kg", "result": "mydriasis for 2 hours (at a maximum 0.5 hour after administration)"}, {"measurement": "Observed symptoms", "setting": "rats [3]; 0.5 mg/kg", "result": "dyspnea for 0.5 hour"}, {"measurement": "Observed symptoms", "setting": "rats [3]; 2 mg/kg, hydrochloride", "result": "mydriasis at a maximum 0.5 hour after administration; also recorded: dyspnea for 2 hours"}, {"measurement": "Observed symptoms", "setting": "rats [3]; 8 mg/kg, hydrochloride", "result": "piloerection for 1 hour; also recorded: mydriasis for 2 hours (at a maximum 0.5 hour after administration); also recorded: dyspnea for 2 hours"}, {"measurement": "Effect on hypothermia induced by apomorphine", "setting": "mice [4]", "result": "as from a dose of 2 mg/kg, administered gastrically, CRL 41 194 opposes the hypothermia"}, {"measurement": "Effect on righting behavior and stereotypies induced by apomorphine", "setting": "mice [4]", "result": "without modifying the righting behavior and the stereotypies"}, {"measurement": "Spontaneous motor activity", "setting": "mice [5]", "result": "At the strongest dose administered gastrically (32 mg/kg), CRL 41 194 slightly reduces the spontaneous motor activity of mice"}, {"measurement": "Duration of the sleep induced by barbital", "setting": "mice [6]", "result": "At the strongest dose administered gastrically (32 mg/kg), CRL 41 194 reduces the duration of the sleep induced by barbital in mice"}, {"measurement": "Stereotype movements", "setting": "rats [7]", "result": "At the strongest dose used (16 mg/kg), CRL 41 194 causes the appearance of stereotype movements; also recorded: The intensity of the effect obtained with 16 mg/kg is slightly lower than that obtained with 2 mg/kg of amphetamine"}, {"measurement": "LD50", "setting": "[8]; grouped mice", "result": 27, "unit": "mg/kg"}, {"measurement": "selectivity ratio", "setting": "[8]; in vivo", "result": 3.19}, {"measurement": "LD50", "setting": "[8]; isolated mice", "result": 86, "unit": "mg/kg"}, {"measurement": "Particular toxicity to grouped mice", "setting": "mice [9]", "result": "more toxic to grouped mice than to isolated mice"}, {"measurement": "Vasodilator (conclusion)", "setting": "dogs", "result": "good vasodilator"}, {"measurement": "Effect on hypertension induced by norepinephrine", "setting": "dogs; anesthetized dogs", "result": "slightly reduced"}, {"measurement": "Effects of isoprenaline on the blood pressure", "setting": "dogs; anesthetized dogs", "result": "reduced as regards the blood pressure"}, {"measurement": "Rectal temperature", "setting": "dogs; anesthetized dogs", "result": "the rectal temperature and skin temperature rose"}, {"measurement": "Skin temperature", "setting": "dogs; anesthetized dogs", "result": "the rectal temperature and skin temperature rose"}, {"measurement": "Effects of isoprenaline on the heart rate", "setting": "dogs; anesthetized dogs, after accumulated dose of 19.1 mg/kg intraduodenal", "result": "not modified as regards the heart rate"}, {"measurement": "Blood pressure", "setting": "dogs; [14]", "result": "A drop in the diastolic blood pressure is observed at 5 mg/kg"}, {"measurement": "Differential blood pressure", "setting": "dogs; [14]", "result": "an increase in the differential blood pressure as from the smallest doses"}, {"measurement": "Femoral flow", "setting": "dogs; [14]", "result": "At 0.5 mg/kg, the femoral flow increases"}, {"measurement": "Heart rate", "setting": "dogs; [14]", "result": "At 0.5 mg/kg, the femoral flow increases at the same time as the heart rate"}, {"measurement": "Respiration", "setting": "dogs; [14]", "result": "Both dogs received respiratory stimulation"}, {"measurement": "Vertebral flow", "setting": "dogs; [14]", "result": "increases the vertebral flow as from a dose of 0.1 mg/kg"}, {"measurement": "Diastolic blood pressure after isoprenaline", "setting": "dogs; [15]", "result": 64, "unit": "mm Hg"}, {"measurement": "Diastolic blood pressure before isoprenaline", "setting": "dogs; [15]", "result": 126, "unit": "mm Hg"}, {"measurement": "Heart rate after isoprenaline", "setting": "dogs; [15]", "result": 262, "unit": "beats/minute"}, {"measurement": "Systolic blood pressure after norepinephrine", "setting": "dogs; [16]", "result": 266, "unit": "mm Hg"}, {"measurement": "Systolic blood pressure before norepinephrine", "setting": "dogs; [16]", "result": 208, "unit": "mm Hg"}, {"measurement": "Activity in the test for cells forming lysis areas", "setting": "[10]", "result": "active on the cellular and humoral immunity"}, {"measurement": "Activity on the delayed hypersensitivity reaction", "setting": "[11]", "result": "active on the cellular and humoral immunity"}, {"measurement": "Result in the treatment of depressions", "setting": "man", "result": "excellent results on man in the treatment of depressions at a dose of 3×5 mg per day"}, {"measurement": "Vasodilator in human clinical use", "setting": "humans", "result": "very active as a vasodilator"}, {"measurement": "Affected foetuses, number", "setting": "[12]; 5 mg/kg daily", "result": 1}, {"measurement": "Total foetuses (live)", "setting": "[12]; 5 mg/kg daily", "result": 95}, {"measurement": "Affected foetuses, %", "setting": "[12]; 5 mg/kg daily", "result": 1.10, "unit": "%"}, {"measurement": "Affected foetuses, number", "setting": "[12]; 10 mg/kg daily", "result": 0}, {"measurement": "Total foetuses (live)", "setting": "[12]; 10 mg/kg daily", "result": 91}, {"measurement": "Affected foetuses, %", "setting": "[12]; 10 mg/kg daily", "result": 0, "unit": "%"}, {"measurement": "pH", "setting": "[13]", "result": 4.5}, {"measurement": "Antidepressant effects (overall)", "setting": "CNS", "result": "is an antidepressant"}, {"measurement": "Immunological effect (overall)", "setting": "immunity", "result": "immunostimulant or immunomodulating effects; also recorded: beneficial immunological properties; also recorded: behaves as an immunomodulating agent"}]}]}
